{"source": "patent US20110112463A1", "about": "“COMPOSITIONS AND METHODS FOR TREATING A NEURONAL INJURY OR NEURONAL DISORDERS” (priority 2009, published 2011)", "system": "NMDA receptors", "test": "NMDA receptor blockade with MK-801 before intermittent photostimulation of ChR2 animals, diaphragmatic EMG", "assay_type": "in vivo, Sprague Dawley rats", "description": "Four days after C2 hemisection and/or virus injection, the animals were anesthetized as above and prepared for light treatment and physiological recordings. In a room where all light was eliminated except for that needed to accomplish the surgical procedures, approximately an eight cm incision was made at the base of the ribcage to expose the abdominal surface of the diaphragm. Bipolar electrodes, connected to an amplifier and data acquisition set-up (CED 1401/Spike2 Data Analysis Computer Interface, Cambridge Electronic Design), were inserted into both left and right hemidiaphragms to record diaphragmatic activity. After this, the cervical area of the spinal cord was reopened again for exposure to photostimulation at a wavelength of 475 nm, i.e., blue light. The light source was a portable unit capable of producing light at various wavelengths through a fiber optic cable (Model Lambda DG-4, Sutter Instrument). Diaphragmatic motor activity was recorded before, during, and after stimulation. During recording, the animals were placed on a circulating warm water blanket to maintain body temperature. The initial protocol used for photostimulation included sustained exposure (1 min) of the C3-C6 spinal cord from the light source, as well as, intermittent exposure to light at about once per second for 1 min. […] This protocol was adapted from the long-term facilitation induction protocol of 5 min normoxia followed by 5 min hypoxia (Fuller et al., 2003; Golder and Mitchell, 2005). The intermittent stimulation consisted of light exposure at 0.5 Hz, with each flash of light 1 s long.\nTo block NMDA receptors, 500 μl of 10 μM MK-801 (Sigma), a noncompetitive NMDA receptor antagonist, diluted in PBS, was applied to the exposed spinal cord. MK-801 was administered after 5 min of baseline recording. Recording with MK-801 continued for 5 more minutes before intermittent photostimulation and thereafter as described above.\nAfter recording, the raw diaphragmatic EMG signal was rectified and integrated using Spike2 software. Frequency was determined by counting total breaths for 5 min before and after photostimulation. Peak amplitude and burst duration of inspiratory bursts were measured through Spike2, for at least 25 breaths before and after stimulation. Poststimulation analyses of ChR2 animals were made during regular patterned respiratory related diaphragmatic EMG activity. All values were standardized to prestimulation measures. Statistical analysis was performed using ANOVA and Tukey's post hoc analysis. All values with a p value <0.05 were considered significant. All error bars indicate SEs.", "note": "“Also recorded” adds a separate entry of the source."}
{"smiles": "C[C@]12N[C@H](Cc3ccccc31)c1ccccc12", "note": "[MK-801]", "values": [{"measurement": "effect on light-induced change in diaphragmatic EMG activity", "setting": "500 μl of 10 μM MK-801 in PBS on exposed C3-C6 spinal cord, ipsilateral and contralateral", "result": "failed to elicit any kind of change in diaphragmatic EMG activity; also recorded: eliminated cycling of increasing diaphragmatic EMG activity"}, {"measurement": "animals in which intermittent photostimulation failed to elicit any change in EMG activity", "setting": "500 μl of 10 μM MK-801 on exposed C3-C6 spinal cord", "result": "four of six"}, {"measurement": "frequency of breaths before and after stimulation", "setting": "FIG. 4A", "result": "no change"}, {"measurement": "effect on photostimulation-induced increase of peak EMG amplitude during inspiratory bursts", "setting": "FIG. 4B, brought back to control levels", "result": "abolished"}, {"measurement": "effect on photostimulation-induced increase in duration of EMG inspiratory bursts", "setting": "FIG. 4C, brought back to control levels", "result": "attenuated"}]}
